Patent publication US4370336A, “3,5-Disubstituted-1H-1,2,4-triazole derivatives as antifertility agents” (priority 1981, dated 1983)
Like-named read-outs stand apart in the source and are kept apart here.

Legend:
[1] = test system: female Syrian golden hamsters; test: post-coital-post-implantation antifertility activity in hamsters, subcutaneous; assay type: in vivo, Syrian golden hamster; conditions: for ED50: Mesocricetus auratus, sc
Experimental: (§1) Representative experiments for assessing antifertility activity were carried out with female Syrian golden hamsters weighing 100 to 130 g. The animals were mated and the presence of sperm in the vagina was taken as evidence of mating. […] Pregnancy was later confirmed at the time of autopsy by presence of fetuses or implantation sites in the uterus. Even if an animal aborts the fetus, implantation scars still remain as evidence that the animal has been pregnant.
(§2) The animals were autopsied on day 14 of pregnancy and the uteri were examined for evidence of pregnancy (implantation sites, fetal resorptions or live fetuses), hemorrage, and evidence of abnormalities of the uterus, placenta or fetuses.

[2] = test system: female Sprague-Dawley rats; test: anti-reproductive activity in rats, subcutaneous; assay type: in vivo, Sprague-Dawley rat; conditions: Rattus norvegicus, sc; for responders at 20 mg/kg: 384 h, 20 mg/kg s.c. for five days from day 6 of pregnancy, sesame oil, autopsy day 16, read-out: reduction of live fetuses (share of treated rats)
Experimental: as §1, §2
The same criteria and experimental conditions as above were also applied when the anti-reproductive activity of the compounds of the invention was investigated in other animal species such as, for instance, rats, dogs, monkeys and baboons. In representative experiments, female Sprague-Dawley rats weighing from 200 to 300 g. were treated subcutaneously with a dosage of 20 mg/kg of the compound to be tested, dissolved in sesame oil, for five consecutive days starting from day 6 of pregnancy.

[3] = test system: hamsters; test: antifertility activity in hamsters by oral route; assay type: in vivo, hamster; conditions: Mesocricetus auratus; for inhibition in vivo at 10 mg/kg: oral dosage of 10 mg/kg, read-out: reduction of live fetuses; for ED50: po, absence of live fetuses in 50% of the animals
Experimental: as §1, §2
The experiments for assessing this property were carried out on hamsters following the same procedure as above, with the obvious exception that the compounds were administered orally instead of subcutaneously.

[4] = hamsters, 100% activity (absence of live fetuses) in 50% of the animals, read-out: ED50

Structure (SMILES)	ED50 [1]	antifertility activity relative to the compounds of the invention ([1]; hamsters, 10 mg/kg s.c. daily for 5 days (days 4-8 of pregnancy), comparison)	ED50 [1, 4]	responders at 20 mg/kg [2]	ED50 ([2]; absence of live fetuses in 50% of the animals)	inhibition in vivo at 10 mg/kg [3]	ED50 [3]
c1ccc(-c2n[nH]c(-c3ccccc3)n2)cc1 [3,5-diphenyl-1H-1,2,4-triazole, reference compound]	6 mg/kg	much less active	–	–	–	–	–
COc1cccc(-c2n[nH]c(-c3ccccc3C)n2)c1 [Example 1, 3-(m-Methoxyphenyl)-5-(o-tolyl)-1H-1,2,4-triazole]	–	–	0.08 mg/kg	≥ 60%	1 mg/kg	~60%	5 mg/kg
COc1ccccc1-c1n[nH]c(-c2ccccc2C)n1 [Example 4, 3-(o-Methoxyphenyl)-5-(o-tolyl)-1H-1,2,4-triazole]	–	–	0.5 mg/kg	≥ 60%	–	~60%	–
CCOc1cccc(-c2n[nH]c(-c3ccccc3C)n2)c1 [Example 9, 3-(m-Ethoxyphenyl)-5-(o-tolyl)-1H-1,2,4-triazole]	–	–	0.07 mg/kg	–	–	–	–
C=CCOc1cccc(-c2n[nH]c(-c3ccccc3C)n2)c1 [Example 10, 3-(m-Allyloxyphenyl)-5-(o-tolyl)-1H-1,2,4-triazole]	–	–	0.25 mg/kg	–	–	–	–
C=CCOc1cccc(-c2n[nH]c(-c3ccccc3CC)n2)c1 [Example 13, 3-(m-Allyloxyphenyl)-5-(o-ethylphenyl)-1H-1,2,4-triazole]	–	–	0.1 mg/kg	–	–	–	–
CCc1ccccc1-c1nc(-c2cccc(F)c2)n[nH]1 [Example 18, 5-(o-Ethylphenyl)-3-(m-fluorophenyl)-1H-1,2,4-triazole]	–	–	0.4 mg/kg	≥ 60%	–	~60%	–
CCc1ccccc1-c1nc(-c2ccc3c(c2)OCO3)n[nH]1 [Example 22, 5-(o-Ethylphenyl)-3-(3,4-methylenedioxyphenyl)-1H-1,2,4-triazole]	–	–	0.03 mg/kg	≥ 60%	–	~60%	3 mg/kg
Cc1ccc(-c2nc(-c3ccccc3)n[nH]2)c(C)c1 [Example 25, 5-(2,4-Dimethylphenyl)-3-phenyl-1H-1,2,4-triazole]	–	–	0.2 mg/kg	≥ 60%	–	~60%	–
COc1cccc(-c2n[nH]c(-c3ccc(C)cc3C)n2)c1 [Example 26, 5-(2,4-Dimethylphenyl)-3-(m-methoxyphenyl)-1H-1,2,4-triazole]	–	–	0.04 mg/kg	≥ 60%	–	~60%	–
Cc1cc(Cl)ccc1-c1nc(-c2ccccc2)n[nH]1 [Example 29, 5-(4-Chloro-2-methylphenyl)-3-phenyl-1H-1,2,4-triazole]	–	–	0.14 mg/kg	≥ 60%	–	~60%	–
COc1cccc(-c2n[nH]c(-c3ccc(Cl)cc3C)n2)c1 [Example 30, 5-(4-Chloro-2-methylphenyl)-3-(m-methoxyphenyl)-1H-1,2,4-triazole]	–	–	0.04 mg/kg	≥ 60%	–	~60%	5 mg/kg
COc1cccc(-c2n[nH]c(-c3cc(Cl)ccc3C)n2)c1 [Example 32, 5-(5-Chloro-2-methylphenyl)-3-(m-methoxyphenyl)-1H-1,2,4-triazole]	–	–	0.35 mg/kg	≥ 60%	–	~60%	–
COc1cccc(-c2n[nH]c(-c3ccc(OC)cc3C)n2)c1 [Example 34, 5-(4-Methoxy-2-methylphenyl)-3-(m-methoxyphenyl)-1H-1,2,4-triazole]	–	–	0.2 mg/kg	–	–	–	–
CCOc1cccc(-c2n[nH]c(-c3ccccc3CC)n2)c1 [Example 35, 3-(m-Ethoxyphenyl)-5-(o-ethylphenyl)-1H-1,2,4-triazole]	–	–	0.04 mg/kg	–	–	–	3 mg/kg
CCc1ccccc1-c1nc(-c2ccc(OC)cc2)n[nH]1 [Example 36, 5-(o-Ethylphenyl)-3-(p-methoxyphenyl)-1H-1,2,4-triazole]	–	–	0.15 mg/kg	–	–	–	5 mg/kg
CCc1ccccc1-c1nc(-c2ccc(OC)c(OC)c2)n[nH]1 [Example 37, 5-(o-Ethylphenyl)-3-(3,4-dimethoxyphenyl)-1H-1,2,4-triazole]	–	–	0.05 mg/kg	–	–	–	–
